How the values were obtained:
KOR = conditions: no reference given; cited from earlier work
κ-opioid receptor (KOR) = κ-opioid receptor (KOR) (Homo sapiens, UniProt P41145); experiment: biochemical; type: binding
μ-opioid receptor (MOR) [1] = target: T1, μ-opioid receptor (MOR) (Homo sapiens, UniProt P35372); experiment: Affinity for the μ-opioid receptor; type: binding; conditions: mean ± SD; no method described
human KOR [2] = target: T2, human KOR (Homo sapiens, UniProt P41145); experiment: biochemical; type: biochemical
Target sequence in this assay (P41145 whole entry): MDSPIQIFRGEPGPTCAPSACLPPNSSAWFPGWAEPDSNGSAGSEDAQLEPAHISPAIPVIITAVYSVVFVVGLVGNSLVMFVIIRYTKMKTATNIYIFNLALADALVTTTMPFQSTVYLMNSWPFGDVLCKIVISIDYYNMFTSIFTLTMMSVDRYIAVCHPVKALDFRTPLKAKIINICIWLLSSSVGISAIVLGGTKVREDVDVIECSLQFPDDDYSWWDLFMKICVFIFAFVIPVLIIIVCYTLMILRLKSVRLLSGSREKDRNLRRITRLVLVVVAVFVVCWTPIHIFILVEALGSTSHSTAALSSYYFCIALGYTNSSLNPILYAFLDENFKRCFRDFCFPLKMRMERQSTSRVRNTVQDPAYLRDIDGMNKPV
Target sequence in this assay (P63096 2-354 partner limits assumed): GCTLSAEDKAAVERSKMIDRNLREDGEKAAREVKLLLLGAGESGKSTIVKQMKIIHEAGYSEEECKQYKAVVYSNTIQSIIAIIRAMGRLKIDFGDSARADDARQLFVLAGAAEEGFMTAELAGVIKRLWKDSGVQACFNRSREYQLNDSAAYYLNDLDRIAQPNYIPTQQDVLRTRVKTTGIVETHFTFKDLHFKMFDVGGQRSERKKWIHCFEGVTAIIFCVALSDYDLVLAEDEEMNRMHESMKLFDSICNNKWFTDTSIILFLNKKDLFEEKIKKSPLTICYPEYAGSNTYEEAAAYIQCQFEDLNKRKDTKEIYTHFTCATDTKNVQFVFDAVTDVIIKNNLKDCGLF
Target sequence in this assay (P62873 2-340 partner limits assumed): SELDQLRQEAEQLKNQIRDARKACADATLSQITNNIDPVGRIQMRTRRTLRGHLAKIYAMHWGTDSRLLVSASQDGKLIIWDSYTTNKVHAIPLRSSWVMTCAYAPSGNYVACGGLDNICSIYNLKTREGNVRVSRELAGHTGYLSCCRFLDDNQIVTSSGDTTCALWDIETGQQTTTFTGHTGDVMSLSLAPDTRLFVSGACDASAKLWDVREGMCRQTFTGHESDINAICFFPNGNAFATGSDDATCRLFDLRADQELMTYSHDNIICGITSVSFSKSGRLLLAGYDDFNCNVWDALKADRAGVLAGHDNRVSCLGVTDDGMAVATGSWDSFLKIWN
Target sequence in this assay (P59768 2-68 partner limits assumed): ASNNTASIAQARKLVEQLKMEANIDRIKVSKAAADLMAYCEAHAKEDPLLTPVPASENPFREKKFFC

human KOR [3] = target: T2, human KOR; type: cell-based
Target sequence in this assay (P41145 whole entry): as the sequence (P41145 whole entry) above

[4] = target: mKOR-tdTomato fusion protein in Neuro2A cells (Mus musculus, UniProt P33534); experiment: KOR internalization in N2A-mKOR-tdT cells, fluorescence microscopy; type: cell-based
mKOR-tdTomato fusion protein in Neuro2A cells, sequence (P33534 whole entry, the tested form may be a part): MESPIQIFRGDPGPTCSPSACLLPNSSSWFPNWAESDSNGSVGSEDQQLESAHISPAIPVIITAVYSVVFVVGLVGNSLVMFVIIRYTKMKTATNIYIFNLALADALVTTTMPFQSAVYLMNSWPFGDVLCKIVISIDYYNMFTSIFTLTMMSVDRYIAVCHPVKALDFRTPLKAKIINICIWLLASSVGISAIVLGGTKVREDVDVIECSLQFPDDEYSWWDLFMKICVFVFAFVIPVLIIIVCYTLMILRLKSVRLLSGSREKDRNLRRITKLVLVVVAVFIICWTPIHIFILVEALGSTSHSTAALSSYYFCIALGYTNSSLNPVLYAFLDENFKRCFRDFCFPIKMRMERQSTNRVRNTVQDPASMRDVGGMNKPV

[5] = cited from earlier work
μ-opioid receptor (MOR) [6] = target: T1, μ-opioid receptor (MOR); conditions: cited from earlier work

κ-opioid receptor (KOR), sequence (P41145 whole entry): as the sequence (P41145 whole entry) above
T1 sequence (P35372 whole entry, species assumed): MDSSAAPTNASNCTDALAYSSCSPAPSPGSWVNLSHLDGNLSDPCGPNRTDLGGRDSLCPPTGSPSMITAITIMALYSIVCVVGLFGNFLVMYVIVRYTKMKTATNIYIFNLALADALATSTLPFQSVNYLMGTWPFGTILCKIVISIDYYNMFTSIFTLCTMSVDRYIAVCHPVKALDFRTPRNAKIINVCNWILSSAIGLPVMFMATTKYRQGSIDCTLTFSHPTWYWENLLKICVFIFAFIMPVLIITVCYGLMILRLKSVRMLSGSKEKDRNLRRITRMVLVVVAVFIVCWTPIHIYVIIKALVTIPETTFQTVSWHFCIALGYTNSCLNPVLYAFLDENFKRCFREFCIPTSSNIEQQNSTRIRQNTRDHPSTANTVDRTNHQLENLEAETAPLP

For CC(C)[C@@H](CN1CC[C@@](C)(c2cccc(O)c2)[C@@H](C)C1)NC(=O)[C@H]1Cc2ccc(O)cc2CN1 [JDTic], the “agonistic activity at KOR” value (KOR) is listed as “no agonistic activity”.
With Oc1ccc2c(c1)[C@@]13CCCC[C@@]1(O)[C@@H](C2)N(CC1CCC1)CC3 [butorphanol] the Kd (κ-opioid receptor (KOR)) was 0.1 ± 0.02 nM, the Ki (κ-opioid receptor (KOR)) was 0.1 ± 0.02 nM and the “affinity for KOR relative to μ-opioid receptor” value (κ-opioid receptor (KOR)) was “about twenty-fold”. The “affinity for the μ-opioid receptor” value (μ-opioid receptor (MOR) [1]) was 2.4 ± 1.2 nM, the EC50 (human KOR [2]) was 2.8 nM and the “agonist character, G protein activation pathway” value (human KOR [2]) was “partial, high affinity agonist”. The “maximal G protein activation relative to salvinorin A” value (human KOR [2]) was “about 50%”, the “agonist character, β-arrestin recruitment pathway” value (human KOR [3]) was “full agonist” and the KOR internalization ([4]; butorphanol 0.1 μM to 8 μM, from 5 min) was “KOR internalization was observed”. The “analgesic potency relative to morphine” value ([5]; clinical trial for perioperative pain management) was roughly 6 times, the “potency relative to morphine” value ([5]; discussion statement, no reference given) was 5–7 fold and the “agonist character at MOR” value (μ-opioid receptor (MOR) [6]) was “partial μ-opioid receptor (MOR) agonist”.
In the case of COC(=O)[C@@H]1C[C@H](OC(C)=O)C(=O)[C@H]2[C@@]1(C)CC[C@H]1C(=O)O[C@H](c3ccoc3)C[C@]21C [salvinorin A], the “agonist character, G protein activation pathway” value (human KOR [2]) is reported as “full agonist” and the “concentration giving full activation of the receptor” value (human KOR [2]) is reported as “above 1 μM”.
For C[C@@]12CCCCC[C@@H](Cc3ccc(O)cc31)[C@@H]2N [dezocine], the Ki (κ-opioid receptor (KOR)) was 56 ± 2 nM and the “effect on butorphanol-induced KOR internalization” value ([4]; 2 μM dezocine co-incubated with 0.4 μM butorphanol for 30 min) was “abolish the KOR internalization”.
